How the values were obtained:
cGAS = target: T1, cGAS (Mus musculus, UniProt Q8C6L5); assay: cGAS activity assay, c[G(2′,5′)pA(3′,5′)p] formation by thin-layer chromatography; type: biochemical; details: cGAS plus dsDNA
T1 construct: Purified recombinant full length (fl, amino acids 1-507) and truncated (tr, amino acids 147-507) murine cGAS; His6-SUMO (N, cleaved yes); made in house; host or cells: E. coli BL21 (DE3) RIL
Source text: To validate the structural results, we established an activity assay using thin-layer chromatography (FIG. 11) and monitored cyclic dinucleotide c[G(2′,5′)pA(3′,5′)p] formation from ATP and GTP using purified recombinant full-length and truncated cGAS proteins. cGAS required the presence of dsDNA and Mg^2+ or Mn^2+ for activity (FIG. 5A-B). […] The trace amount of c[G(2′,5′)pA(3′,5′)p]detected for the specific ssDNA used in this experiment was attributable to a stretch of sequence complementarity, and the substitution of G by 8-oxoguanine (8-oxoG) was sufficient to destabilize its predicted interaction and eliminate the residual cGAS activity.
Purified recombinant full length (fl, amino acids 1-507) and truncated (tr, amino acids 147-507) murine cGAS, including truncated mutant versions 1-6, were incubated in 20 μL reactions containing: 1 μM cGAS, 3.3 μM dsDNA, 5 mM MgCl2, 150 mM NaCl, 20 mM Tris-HCl, pH 7.5 at 25° C., 1 mM DTT, 10% glycerol, 1 mM each of nucleotides (typically ATP and GTP), and α^32P or γ^32P radiolabelled NTPs or dNTPs at 37° C. for 40 min. Reactions were stopped by addition of 20 μL of 50 mM EDTA. 2 μL of reaction solution was spotted onto high-performance TLC plates (HPTLC silica gel, 60 Å pores, F254, 10×10 cm, cat #1.05628.0001, EMD Millipore) and products were separated with Solvent 1 (NH4HCO3:C2H5OH:H2O [0.2 M:30%:70%], w:v:v) or 2 (NH4HCO3:C2H5OH:H2O [0.025 M:30%:70%], w:v:v) at 25° C. for 1 h. Reaction products were visualized by UV (254 nm) and phosphorimaging (Typhoon FLA 9500, GE Healthcare). Images were processed using Adobe Photoshop and Illustrator CS5. The TLC conditions used were largely based on a protocol established to separate 3′,5′ cAMP (Higashida et al, 2012).
The yield of c[G(2′,5′)pA(3′,5′)p] generated was calculated by densitometry analysis of TLC experiments, using FIJI (ImageJ 1.47i) or spectrophotemetrically (absorbance at 260 nm, E260=25.4×10^3) after purification from HPLC. For densitometry analyses, the fraction of α^32P-labelled c[G(2′,5′)pA(3′,5′)p] over total radioactivity per lane (c[G(2′,5′)pA(3′,5′)p]plus remaining α^32P-labelled ATP or GTP) was calculated.

THP 1 cells = details: concentrations as low as; cited from earlier work
Raw264.7 cells = details: concentrations as low as; cited from earlier work

T1 sequence (Q8C6L5 whole entry, the tested form may be a part): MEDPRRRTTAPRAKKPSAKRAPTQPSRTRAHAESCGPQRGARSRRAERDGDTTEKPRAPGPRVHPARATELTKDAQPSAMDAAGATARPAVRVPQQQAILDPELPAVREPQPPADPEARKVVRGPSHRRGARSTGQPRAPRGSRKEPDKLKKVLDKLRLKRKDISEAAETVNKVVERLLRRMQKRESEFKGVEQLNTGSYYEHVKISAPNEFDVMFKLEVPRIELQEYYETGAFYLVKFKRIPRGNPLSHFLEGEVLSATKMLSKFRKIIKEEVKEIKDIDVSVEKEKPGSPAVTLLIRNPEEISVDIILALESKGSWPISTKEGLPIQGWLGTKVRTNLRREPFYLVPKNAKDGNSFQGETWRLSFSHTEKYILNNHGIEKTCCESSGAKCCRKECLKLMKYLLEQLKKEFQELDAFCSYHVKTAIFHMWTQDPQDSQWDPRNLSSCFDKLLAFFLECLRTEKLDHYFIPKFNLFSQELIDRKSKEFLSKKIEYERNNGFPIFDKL

| cyclic dinucleotide formation with the nucleotide as cGAS substrate in place of GTP or ATP (in words) (cGAS) | SMILES | concentration at which production of interferon is stimulated (THP 1 cells) [nM] | concentration at which production of interferon is stimulated (Raw264.7 cells) [nM] |
| --- | --- | --- | --- |
| reduced amount of the cylic-dinucleotide | Nc1nc2c(ncn2[C@@H]2O[C@H](COP(=O)(O)OP(=O)(O)O)[C@@H](O)[C@H]2O)c(=O)[nH]1 [GDP, reference compound] | – | – |
| – | Nc1nc2c(ncn2[C@@H]2O[C@@H]3COP(=O)(O)O[C@H]4[C@@H](O)[C@H](n5cnc6c(N)ncnc65)O[C@@H]4COP(=O)(O)O[C@H]3[C@H]2O)c(=O)[nH]1 [c[G(3′,5′)pA(3′,5′)p]] | 10 | 10 |

Source: patent US11014956B2, “Compositions and methods for altering second messenger signaling” (Memorial Sloan Kettering Cancer Center, priority 2013, dated 2021)
